Experiments:
Conditions in all cases: 72 h
Caco-2 [1] = assay: cell viability relative to DMSO; higher = less toxic
Calu-3 [2] = assay: as above
HepG2 [3] = assay: as above
U2OS [4] = assay: as above
Vero E6 [5] = assay: as above
Caco-2 [6] = assay: relative viability EC50 (midpoint between 100% and the lowest measured viability); higher = less toxic
Calu-3 [7] = assay: as above
HepG2 [8] = assay: as above
U2OS [9] = assay: as above
Vero E6 [10] = assay: as above
Caco-2 [11] = assay: drug sensitivity score (DSS) for viability; higher = more toxic; extreme values may be limits of the assay
Calu-3 [12] = assay: as above
HepG2 [13] = assay: as above
U2OS [14] = assay: as above
Vero E6 [15] = assay: as above

Compound | cell viability (Caco-2 [1]; 1 nM) | cell viability (Caco-2 [1]; 10 nM) | cell viability (Caco-2 [1]; 100 nM) | cell viability (Caco-2 [1]; 1000 nM) | cell viability (Caco-2 [1]; 10000 nM) | cell viability (Calu-3 [2]; 1 nM) | cell viability (Calu-3 [2]; 10 nM) | cell viability (Calu-3 [2]; 100 nM) | cell viability (Calu-3 [2]; 1000 nM) | cell viability (Calu-3 [2]; 10000 nM) | cell viability (HepG2 [3]; 1 nM) | cell viability (HepG2 [3]; 10 nM) | cell viability (HepG2 [3]; 100 nM) | cell viability (HepG2 [3]; 1000 nM) | cell viability (HepG2 [3]; 10000 nM) | cell viability (U2OS [4]; 1 nM) | cell viability (U2OS [4]; 10 nM) | cell viability (U2OS [4]; 100 nM) | cell viability (U2OS [4]; 1000 nM) | cell viability (U2OS [4]; 10000 nM) | cell viability (Vero E6 [5]; 1 nM) | cell viability (Vero E6 [5]; 10 nM) | cell viability (Vero E6 [5]; 100 nM) | cell viability (Vero E6 [5]; 1000 nM) | cell viability (Vero E6 [5]; 10000 nM) | relative viability EC50 (Caco-2 [6]) | relative viability EC50 (Calu-3 [7]) | relative viability EC50 (HepG2 [8]) | relative viability EC50 (U2OS [9]) | relative viability EC50 (Vero E6 [10]) | drug sensitivity score (Caco-2 [11]) | drug sensitivity score (Calu-3 [12]) | drug sensitivity score (HepG2 [13]) | drug sensitivity score (U2OS [14]) | drug sensitivity score (Vero E6 [15])
COc1ccc(Nc2ncnc3ccc(OC)cc23)cc1 | 105% | 102% | 101% | 99.5% | 91.3% | 93.9% | 108% | 95.4% | 89.6% | 77.5% | 106% | 98.3% | 93.5% | 93% | 83% | 101% | 102% | 103% | 99% | 106% | 102% | 106% | 99.6% | 100% | 85.2% | > 10 µM | > 10 µM | > 10 µM | > 10 µM | > 10 µM | 0 | 1.5 | 0.6 | 0 | 0.2
Cc1ccc(NC(=O)c2cccc(N(C)C)c2)cc1NC(=O)c1ccc(O)cc1 | 101% | 102% | 89% | 93.6% | 81.8% | 104% | 104% | 91.7% | 94.7% | 99% | 98.8% | 97.7% | 105% | 94.3% | 84.1% | 104% | 100% | 99.5% | 97% | 104% | 101% | 99.8% | 98.4% | 101% | 102% | > 10 µM | > 10 µM | > 10 µM | > 10 µM | > 10 µM | 0.8 | 0 | 0.8 | 0 | 0
N=C(C[C@@H](O)COc1ccccc1-c1ccccc1)N1CCCCC1 | 95.7% | 100% | 81.8% | 96.6% | 89.5% | 100% | 98.2% | 90.1% | 104% | 83.6% | 92.8% | 94.5% | 109% | 84.4% | 101% | 99.9% | 103% | 96.8% | 102% | 92.8% | 97.5% | 102% | 96.6% | 96.8% | 102% | > 10 µM | > 10 µM | > 10 µM | > 10 µM | > 10 µM | 0 | 0.2 | 0 | 0 | 0
Nc1nc2c(c(N3CCNCC3)n1)CCC1=C2[C@@H]2CCCC[C@@H]2O1 | 99.3% | 95.5% | 93% | 91.5% | 103% | 104% | 105% | 101% | 106% | 96.4% | 94.8% | 105% | 109% | 102% | 54.2% | 102% | 100% | 99.5% | 98.8% | 101% | 96.3% | 93% | 93.6% | 88.5% | 90% | > 10 µM | > 10 µM | – | > 10 µM | > 10 µM | 0 | 0 | 2.2 | 0 | 0.1
O=C(CC12CC3CC(CC(C3)C1)C2)Nc1cccc2nc(NCCNCCO)ccc12 | 91.2% | 93.1% | 93.8% | 91.8% | 91.8% | 99% | 101% | 92.1% | 98.4% | 94.9% | 97.5% | 94.7% | 93.7% | 96.8% | 99.9% | 96.1% | 102% | 95.2% | 97.9% | 95.1% | 96% | 102% | 95.8% | 91.4% | 100% | > 10 µM | > 10 µM | > 10 µM | > 10 µM | > 10 µM | 0 | 0 | 0 | 0 | 0
